The text below walks through data of patent EP4570798A1, “AROMATIC HETEROCYCLIC CYCLOHEXYL AMINOALKYL PIPERIDINE DERIVATIVE, PREPARATION METHOD AND USE THEREOF” (Jiangsu NHWA Pharmaceutical Co., Ltd, priority 2022, dated 2024).

For one series, the target named is Dopamine D2L receptor (Homo sapiens, UniProt P14416). The experiment in a line: In vitro dopamine D2L receptor function experiment (cAMP, forskolin-stimulated HEK293/D2L cells). The conditions noted are these: for Emax: HEK293, read-out: D2L Emax.
Sequence of Dopamine D2L receptor (P14416 whole entry): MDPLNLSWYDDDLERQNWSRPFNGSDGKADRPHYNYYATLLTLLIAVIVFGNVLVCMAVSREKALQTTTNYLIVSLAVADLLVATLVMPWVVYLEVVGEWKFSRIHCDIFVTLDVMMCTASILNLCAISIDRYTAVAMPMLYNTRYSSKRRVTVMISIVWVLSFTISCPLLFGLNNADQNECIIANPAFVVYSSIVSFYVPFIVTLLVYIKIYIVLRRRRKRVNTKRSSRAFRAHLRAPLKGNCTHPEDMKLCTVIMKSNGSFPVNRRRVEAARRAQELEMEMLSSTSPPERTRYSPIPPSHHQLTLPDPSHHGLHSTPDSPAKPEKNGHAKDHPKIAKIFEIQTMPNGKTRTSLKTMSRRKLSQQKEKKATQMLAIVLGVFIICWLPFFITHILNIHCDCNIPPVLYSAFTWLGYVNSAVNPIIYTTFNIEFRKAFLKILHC
For series [1], the target named is T1, 5-HT1A (Homo sapiens, UniProt P08908).
T1 sequence (P08908 1-422): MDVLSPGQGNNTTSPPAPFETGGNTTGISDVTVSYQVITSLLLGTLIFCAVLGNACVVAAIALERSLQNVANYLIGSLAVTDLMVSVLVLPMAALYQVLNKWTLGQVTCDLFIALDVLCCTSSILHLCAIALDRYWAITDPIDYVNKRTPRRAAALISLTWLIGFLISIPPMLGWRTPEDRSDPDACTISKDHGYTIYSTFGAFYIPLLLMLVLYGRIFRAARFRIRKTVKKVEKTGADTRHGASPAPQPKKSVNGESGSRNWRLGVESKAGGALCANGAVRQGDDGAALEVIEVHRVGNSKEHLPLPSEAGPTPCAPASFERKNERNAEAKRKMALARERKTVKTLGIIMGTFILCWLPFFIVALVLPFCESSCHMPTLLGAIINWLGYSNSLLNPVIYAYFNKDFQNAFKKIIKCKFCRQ
Briefly: In vitro 5HT1A receptor function experiment (cAMP, forskolin-stimulated HEK293/5HT1A cells). The format is cell-based. Details: expressed in transfected cells; host or cells: HEK293. The conditions noted are these: for pEC50: forskolin 1 µM; for Emax: maximum activation rate. The protocol:
1.1.1 Cell information: HEK293/5HT1A: a stably transfected cell strain HEK293/5HT1A constructed by adopting 5HT1A receptor lentivirus to infect HEK293; growth culture medium: DMEM, 10% FBS, and 0.6 µg/mL puro; and cryopreservation culture medium: 70% culture medium, 20% FBS, and 10% DMSO.

The next series concerns the target hERG potassium channel (Homo sapiens, UniProt Q12809). The experiment in a line: In vitro hERG experiment (whole-cell patch clamp). It is filed as cell-based. The conditions noted are these: for pIC50: whole-cell patch clamp, tail current, room temperature. The protocol:
Extracellular fluid: 140 mM NaCl, 3.5 mM KCl, 1 mM MgCl2, 2 mM CaCl2, 10 mM Glucose, 10 mM HEPES, and 1.25 mM NaH2PO4, with the pH adjusted to 7.4 by NaOH.
Under an inverted microscope, recording electrodes were controlled by a glass electrode micromanipulator (micromanipulation) to contact with the cell. A negative voltage was applied to form a GΩ seal. After forming the GΩ seal, a rapid capacitance compensation was given. Under the continuous negative voltage, the cell membrane was ruptured to establish a whole-cell recording mode. In the whole-cell recording mode, a slow capacitance compensation was given, and the values of membrane capacitance and series resistance were recorded.
Voltage stimulation scheme for cellular hERG potassium current: the cell membrane clamping voltage was -80 mV; the voltage was first elevated from -80 mV to +30 mV, held for 2.5 s, and rapidly changed to and held at -50 mV for 4 s, thus exciting the hERG channel tail current. Data were acquired every 10 s. Leak current detection was performed at -50 mV.
The coverslip with seeded cells was placed in the recording chamber of the inverted microscope. Negative control and test compounds flowed through the recording chamber in an ascending order of concentration by gravity perfusion to quickly act on the cells. During the recording, the extracellular fluid was continuously circulated by a vacuum pump. The current detected in a cell in the negative control was used as the background for the cell. Each compound concentration was allowed to act for 5 min or until the current was stabilized. All experiments were performed at room temperature.
The current of each compound concentration was first normalized according to (peak tail current compound)/(peak tail current vehicle), and then the corresponding inhibition rate was calculated according to (1 - (peak tail current compound)/(peak tail current vehicle)). Basic statistics were calculated for each concentration, including mean, standard deviation (SD), standard error (SE), and replicates (n). […] Curve fitting and calculation of IC50 were performed by GraphPad Prism 5.0 software.
On the technique in general: hERG is a cardiac potassium channel; its block is linked to QT prolongation.

In a further series the target is D2 (Homo sapiens, UniProt P14416). The conditions noted are these: literature value; cited from earlier work.
Sequence of D2 (P14416 whole entry): as the sequence (P14416 whole entry) above
Series [2] deals with T1, 5-HT1A. The conditions noted are these: literature value; cited from earlier work.
For a further series, the target named is D3 (Homo sapiens, UniProt P35462). The conditions noted are these: literature value; cited from earlier work.
Sequence of D3 (P35462 whole entry): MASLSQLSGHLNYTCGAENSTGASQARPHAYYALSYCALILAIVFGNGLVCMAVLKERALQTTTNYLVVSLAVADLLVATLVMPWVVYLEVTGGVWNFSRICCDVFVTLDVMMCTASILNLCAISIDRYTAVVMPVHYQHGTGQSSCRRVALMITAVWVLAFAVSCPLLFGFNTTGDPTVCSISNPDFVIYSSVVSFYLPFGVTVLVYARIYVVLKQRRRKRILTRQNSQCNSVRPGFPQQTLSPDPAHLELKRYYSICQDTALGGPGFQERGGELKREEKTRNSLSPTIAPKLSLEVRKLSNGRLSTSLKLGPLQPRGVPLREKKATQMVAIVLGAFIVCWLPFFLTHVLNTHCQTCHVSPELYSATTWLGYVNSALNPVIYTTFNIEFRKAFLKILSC
For a further series, the system named is 5HT1A/1B. The conditions noted are these: 5HT1A/1B agonist, literature value; cited from earlier work.
Series [3] can be described thus: In vitro liver microsome stability, human. Background: Liver microsomes are a subcellular fraction often used to study metabolism.
Description: (§1) • (1) Buffer preparation: 73.21 g of dipotassium hydrogen phosphate trihydrate and 10.78 g of potassium dihydrogen phosphate were dissolved in 4000 mL of ultrapure water. The pH of the solution was adjusted to within 7.40 ± 0.10 using 10% phosphoric acid or 1 M potassium hydroxide, resulting in a final concentration of 100 mM. • (2) Solution preparation and dilution: Stock solutions of the test compounds at a concentration of 10 mM were prepared in dimethyl sulfoxide (DMSO) and stored at 4 °C, and they were diluted into 100 µM working solutions with pure acetonitrile when used. A stock solution of the control compound testosterone at a concentration of 10 mM was prepared in DMSO and stored at -20 °C, and it was diluted into a 400 µM working solution with pure acetonitrile when used. • (3) Termination solution preparation: The termination solution was acetonitrile containing the internal standard buspirone. The prepared termination solution was stored in a refrigerator at 2-8 °C. • (4) Liver microsome solution preparation: Microsomes from various species (CD-1 mouse, SD rat, and human) were diluted into a 20× working solution using 100 mM potassium phosphate buffer. The final concentration of the microsomes in the reaction system was 0.5 mg/mL. • (5) Reduced nicotinamide adenine dinucleotide phosphate (NADPH) regeneration system preparation: Appropriate amounts of nicotinamide adenine dinucleotide phosphate (NADP), glucose-6-phosphate (G6P), magnesium chloride (MgCl2), and glucose-6-phosphate dehydrogenase (G6PDH) were weighed to prepare stock solutions at concentrations of 65.33 mM, 330 mM, 300 mM, and 250 Units/mL, respectively. The four stock solutions described above were each added to an appropriate amount of buffer, and the mixture was mixed well by gently inverting up and down. […] Several incubation plates were prepared and named T0, T5, T10, T20, T40, T60, PB60, and NCF60, respectively. […] The NCF60 plate was incubated for 60 min with potassium phosphate buffer replacing the NADPH regeneration system solution. The PB60 plate was incubated for 60 min with potassium phosphate buffer replacing the liver microsomes. Samples under all conditions were prepared in triplicate.
(§2) 2 µL of the test compound or control compound and 100 µL of microsome working solution (containing 1 mg/mL liver microsome protein) were added to each of the T0, T5, T10, T20, T40, T60, and NCF60 plates, and 2 µL of the test compound and 100 µL of potassium phosphate buffer were added to the PB60 plate. The plates described above were then pre-incubated in a 37 °C water bath for about 5 min.
(§3) After the pre-incubation, 600 µL of the termination solution was first added to the T0 samples, followed by the addition of 98 µL of NADPH regeneration system working solution. The plate was sealed, shaken, and then allowed to wait for simultaneous processing with subsequent samples. Except for the NCF60 plate where 98 µL of potassium phosphate buffer was added to each sample well, 98 µL of NADPH regeneration system working solution was added to each sample well of the other incubation plates to initiate the reaction. In the reaction system, the final concentrations of the test compound and the control compound were 1 µM and 4 µM, respectively, the concentration of the liver microsomes was 0.5 mg/mL, and the final concentrations of DMSO and acetonitrile were 0.01% (v/v) and 0.99% (v/v), respectively.
(§4) After incubation for an appropriate time (such as 5, 10, 20, 40, and 60 min), 600 µL of the termination solution containing the internal standard was added to each test compound sample and control compound well to terminate the reaction. The plates were sealed, shaken well, and then centrifuged at 4000 ×g and 4 °C for 15 min.
Series [4] in a line: In vitro liver microsome stability, CD-1 mouse.
Description: as §1, §2, §3, §4
Series [5] deals with tacrine-induced jaw tremors in rats. Briefly: Tacrine-induced jaw tremor behavior in rats. It is filed as in vivo, Sprague Dawley rats. The protocol: Test compounds: The free bases of Examples 28, 32, and 33 in the present invention, which were self-prepared.
Positive control compound: Rotigotine.
Molding drug: Tacrine, SIGMA, A3773-1G.
Vehicle: Normal saline, Cisen Pharmaceutical Co., Ltd., 2111060723.
Sprague Dawley rats, male, 10/group, Shanghai Slac Laboratory Animal Co., Ltd.
Drug preparation: The test compound was taken, added to the vehicle, and subjected to ultrasonication.
Administration route and method: Administration was performed by intraperitoneal injection.
Administration frequency and duration: single administration.
The rats were stratified according to body weight and then randomly divided into a model group, an administration group, and a control group. The rats were acclimatized for three days before the experiment. On the day of the experiment, the vehicle or drug was first injected intraperitoneally, followed by an intraperitoneal injection of tacrine at a dose of 5 mg/kg (body weight) after 60 min. After administration, the rats were placed in a transparent observation box, and the jaw tremor counting was started 10 min later. The continuous counting duration was 5 min, and the jaw tremor frequency in the rats within 5 min was recorded.
The experimental data were expressed as x ± SEM. Inhibition rate (%) = 100% × (jaw tremor frequency in the rats of the model group - jaw tremor frequency in the rats of the administration group)/jaw tremor frequency in the rats of the model group, where *: p < 0.05, **: p < 0.01, and ***: p < 0.001 vs vehicle.

The nature of series [6]: In vitro liver microsome stability, SD rat.
Description: as §1, §2, §3, §4
In the next series the target is T2, Dopamine D3 receptor (Homo sapiens, UniProt P35462).
T2 construct: expressed in transfected cells; host or cells: CHO-K1
T2 sequence (P35462 whole entry, species assumed): as the sequence (P35462 whole entry) above
The experiment in a line: In vitro dopamine D3 receptor function experiment (CHO-K1/D3/CRE reporter, chemiluminescence). It is filed as cell-based. The protocol:
3.1.1 Cell information: CHO-K1/D3/CRE constructed by referring to the method in Example 5 of CN114369578A.
The first day: cell plating • (1) The cultured cells were digested with trypsin, and after the digestion was terminated with culture medium, the cell suspension was transferred to a centrifuge tube and centrifuged at 750 rpm for 5 min. • (2) The supernatant was discarded, and the pellet was resuspended in an appropriate amount of plating medium.
The following day: experimental detection • (1) The test compounds were diluted to 0.2 mM with DMSO, and the reference compound dopamine was diluted to 0.02 mM. • (2) Compound dilution (4-fold dilution at 8 concentration points) was performed using Bravo, with the starting concentrations of the test compounds and the reference compound being 5 µM and 500 nM, respectively. […] The program selected was an ultrasensitive chemiluminescence detection program.

Where [7] appears, read: human, liver microsomes, pH 7.4.
Setting [8] is: CD-1, mouse, liver microsomes, pH 7.4.
The mark [9] stands for this setting: SD, rat, liver microsomes, pH 7.4.

SMILES strings stand for the structures. pEC50, pIC50: −log10 of the molar value. Where “and” joins values, the source holds several entries; their conditions need not be identical. Identical values can stand only once. Counter-ions that a name gives are not always drawn. Like-named read-outs stand apart in the source and are kept apart here.

Sequence of hERG potassium channel (Q12809 whole entry): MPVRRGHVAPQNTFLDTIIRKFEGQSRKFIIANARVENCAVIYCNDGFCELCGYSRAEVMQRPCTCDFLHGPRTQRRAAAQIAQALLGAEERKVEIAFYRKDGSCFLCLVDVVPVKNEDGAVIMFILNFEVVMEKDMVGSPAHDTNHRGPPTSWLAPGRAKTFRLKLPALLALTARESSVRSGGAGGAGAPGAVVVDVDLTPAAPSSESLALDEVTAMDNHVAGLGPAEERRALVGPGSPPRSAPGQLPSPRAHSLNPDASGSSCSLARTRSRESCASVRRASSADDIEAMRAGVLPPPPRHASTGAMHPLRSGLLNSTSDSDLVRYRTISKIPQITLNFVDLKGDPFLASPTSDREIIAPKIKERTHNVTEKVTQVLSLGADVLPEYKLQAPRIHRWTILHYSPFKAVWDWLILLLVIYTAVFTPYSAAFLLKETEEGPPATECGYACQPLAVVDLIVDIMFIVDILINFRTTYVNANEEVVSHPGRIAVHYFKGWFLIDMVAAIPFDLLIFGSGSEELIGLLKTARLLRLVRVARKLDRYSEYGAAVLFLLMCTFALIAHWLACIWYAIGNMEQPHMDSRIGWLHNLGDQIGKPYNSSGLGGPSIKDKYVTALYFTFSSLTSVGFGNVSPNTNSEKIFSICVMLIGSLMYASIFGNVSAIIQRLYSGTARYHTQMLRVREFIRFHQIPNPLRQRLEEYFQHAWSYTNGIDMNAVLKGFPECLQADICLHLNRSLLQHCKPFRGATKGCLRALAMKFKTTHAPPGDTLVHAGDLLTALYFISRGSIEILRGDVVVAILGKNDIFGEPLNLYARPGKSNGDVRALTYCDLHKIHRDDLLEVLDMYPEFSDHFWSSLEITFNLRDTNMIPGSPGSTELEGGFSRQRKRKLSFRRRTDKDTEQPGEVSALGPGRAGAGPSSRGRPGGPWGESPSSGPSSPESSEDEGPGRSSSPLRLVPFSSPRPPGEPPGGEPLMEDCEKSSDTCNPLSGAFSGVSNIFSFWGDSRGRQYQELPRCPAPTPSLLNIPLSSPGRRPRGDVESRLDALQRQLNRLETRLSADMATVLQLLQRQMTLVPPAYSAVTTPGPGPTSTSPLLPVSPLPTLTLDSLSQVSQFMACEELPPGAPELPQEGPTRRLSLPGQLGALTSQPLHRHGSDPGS
Description for Dopamine D2L receptor: • (1) Compound preparation: The test compounds and dopamine were diluted to a concentration of 200 nM for later use. • (2) Experimental buffer preparation: The 5× stimulation buffer was diluted to 1× with ddH2O, and IBMX was added to a final concentration of 0.5 mM. The mixture was mixed well for later use. • (3) The cells were digested with trypsin, and centrifugation was performed after the digestion was terminated. The cell pellet was resuspended in 10 mL of pre-warmed HBSS and centrifuged again. Then, 1 mL of stimulation buffer was added for resuspension, and 20 µL of the cell suspension was taken for cell counting. • (4) An appropriate amount of the cell suspension was taken and diluted to 0.4 × 10^6 cells/mL, and 5 µL of the diluted cell suspension was added to each well of a cell plate and centrifuged at 1000 rpm for 1 min. • (5) Compound dilution and transfer using bravo: The compounds were diluted 4-fold to obtain 8 concentration points in the compound plate. The diluted compounds in the whole plate were then transferred to a 384-well white plate using bravo and centrifuged at 1000 rpm for 1 min. • (6) The experimental plate was sealed and incubated at room temperature for 15 min. • (7) Forskolin, prepared with DMSO, was added at 25.1 nL/well using Tecan D300e, with a mother liquor concentration of 0.2 mM and a final concentration of 0.25 µM, followed by centrifugation at 1000 rpm for 1 min. • (8) The plate was sealed and incubated at room temperature for 45 min. • (9) cAMP standard curve preparation: A 4-fold serial dilution was performed to obtain 8 concentration points from a starting concentration of 2848 nM. Then, 10 µL of each dilution was taken and added to the experimental plate, with a maximum concentration of 712 nM. • (10) 5 µL of cAMP-d2 solution (stock solution diluted at 1:20 with lysis buffer) was added to the experimental plate, and the plate was centrifuged at 1000 rpm for 1 min. • (11) Then, 5 µL of Anti-cAMP-Cryptate solution (stock solution diluted at 1:20 with lysis buffer) was added to the experimental plate, and the plate was centrifuged at 1000 rpm for 1 min. • (12) The experimental plate was incubated at room temperature for 45 min and centrifuged at 1000 rpm for 1 min before reading. • (13) Plate reading was performed using Envision, with excitation light at 320 nm and emission lights at 620 nm and 665 nm. The derived data were analyzed, and the maximum activation rates Emax and EC50 of the compounds were calculated.

For `CCCN(CC1CCN(C(=O)OC)CC1)[C@@H]1CCc2nc(N)sc2C1` (stereo in doubt) [Comparative Example 3, Methyl (R)-4-(((2-amino-4,5,6,7-tetrahydrobenzo[d]thiazol-6-yl)(propyl)amino)methyl)piperidine-1-carboxylate hydrochloride, reference compound], on Dopamine D2L receptor, the pEC50 is 9.02 and the Emax was determined as 112%. In addition, at 5-HT1A [1], the pEC50 was 6.69 and the Emax stood at 97%. On hERG potassium channel, this compound gave a pIC50 of 5.29.
Regarding `O=c1[nH]c2cccc(N3CCN(Cc4cccc(-c5ccccc5)c4)CC3)c2o1` [Bifeprunox], the pEC50 was 7.40 at D2 and 7.32 on 5-HT1A [2]. Moreover, the pIC50 on D3 is 7.82.
For `CCCN(CCN1CCN(c2cccc(Cl)c2Cl)CC1)[C@H]1CCc2nc(N)sc2C1` [Comparative Example 1, (S)-N^6-(2-(4-(2,3-Dichlorophenyl)piperazin-1-yl)ethyl)-N^6-propyl-4,5,6,7-tetrahydrobenzo[d]thiazole-2,6-diamine hydrochloride, reference compound], on Dopamine D2L receptor, the pEC50 was 9.60 and the Emax is 101%. At 5-HT1A [1], this compound gave a pEC50 of 6.69 and an Emax of 99.1%.
In the case of `CCCN(CC1CCN(C(=O)OC)CC1)C1CCc2nc(N)sc2C1` (stereo not shown) [Comparative Example 2, Methyl 4-(((2-amino-4,5,6,7-tetrahydrobenzo[d]thiazol-6-yl)(propyl)amino)methyl)piperidine-1-carboxylate hydrochloride, reference compound], the pEC50 on Dopamine D2L receptor is 8.77; on 5-HT1A [1] it was 6.61. Besides, the Emax stood at 112% on Dopamine D2L receptor and 95.4% at 5-HT1A [1]. On hERG potassium channel, this compound showed a pIC50 of 5.33.
On to `c1cc2c(c(N3CCNCC3)c1)OCCO2` [Eltoprazine], for which the pEC50 in the series with 5HT1A/1B is 6.83.
On to `CCCN(CC1CCN(C(=O)N2CCOCC2)CC1)[C@H]1CCc2nc(N)sc2C1` [Example 33, (S)-(4-(((2-Amino-4,5,6,7-tetrahydrobenzo[d]thiazol-6-yl)(propyl)amino)methyl)piperidin-1-yl)(morpholino)methanone], for which the “CLint(liver)” value in [3] (Human liver microsomes) is recorded as 2.6 mL/min/K g; in series [4] (CD-1 mouse liver microsomes), 50.0 mL/min/K g; in series [6] (SD rat liver microsomes) it was 27.3 mL/min/K g. For the same compound, the CLint scaled at 1 µM in [3] (setting [7]) was less than 8.9 mL/min/kg; in series [4] (setting [8]), 38.6 to 210 mL/min/kg; in series [6] (setting [9]) it was 23.7 to 129 mL/min/kg. For the same compound, the values for the microsomal CLint at 1 µM in series [3] (setting [7]), in [4] (setting [8]) and in series [6] (setting [9]) were 2.9 µL/min/mg, 12.6 µL/min/mg and 15.2 µL/min/mg, respectively. The “Inhibition of tacrine-induced jaw tremors in rats” value in series [5] (1 mg/kg, 3 mg/kg, and 10 mg/kg, intraperitoneal, single administration, free base, compared to the model group) is “significantly inhibited”. For the same compound, in series [5] (tacrine-induced jaw tremor in rats, compared with rotigotine), the Minimum effective dose entry is given as “lower than that of the positive control drug”. Besides, the pEC50 on 5-HT1A [1] is 6.79; at Dopamine D3 receptor (forskolin 0.4 µM), 8.96. In addition, the figures for the Emax at 5-HT1A [1] and on Dopamine D3 receptor (maximum activation rate) were 92.7% and 107%, respectively. Further, the “hERG inhibition: functional activity lower than that of the pharmacodynamic target” value on hERG potassium channel (hERG IC50 versus activity at pharmacodynamic target) is reported as no less than 1000 fold. Besides, at hERG potassium channel, the pIC50 was 4.70 and 4.69. Besides, the half-life at 1 µM in series [6] (setting [9]) is 1.52 h.
On to `Cc1ccc(CNCC2(F)CCN(C(=O)c3ccc(F)c(Cl)c3)CC2)nc1` [NLX-112], for which the “5-HT1A Emax” value at 5-HT1A [2] is on record as 84%.
`CN1CCN(c2cccc3[nH]c(=O)oc23)CC1` [Pardoprunox]: the pEC50 on D2 is 8.00; on 5-HT1A [2], 6.30; on D3 it was 9.22.

For orientation: pEC50 means the EC50 on a negative log10 scale, so that one unit is a factor of ten. One may read the Emax as the size of the effect at its maximum, as opposed to the concentration needed. The term pIC50 denotes −log10 of the IC50, conventionally taken in molar units. What is called CLint scaled is a measure of how fast metabolising enzymes remove a compound, apart from limits set by blood flow. In general, microsomal CLint refers to the capacity of the preparation to metabolise the compound, expressed as a volume cleared per time. Higher therefore signals rapid turnover. Usually half-life stands for the time in which the quantity being followed falls by half. Read a low half-life as rapid decline.
